The text below walks through data of patent publication US11672785B2, “Tetrahydro-1H-pyrido [3,4-b]indole anti-estrogenic drugs” (Olema Pharmaceuticals, Inc., priority 2015, dated 2023).

For data set [1], the system named is estrogen-responsive reporter gene, ERE-tk109-Luc. In words: Inhibition of E2-induced transcription, ERE-tk109-Luc reporter in transfected MCF-7 cells. The format is cell-based. Particulars: Homo sapiens, MCF7. The procedure:
Representative compounds were tested for their inhibitory activity of estrogen according to the assay methods described in Hodges-Gallagher, L., Valentine, C. […] Specifically, MCF-7 cells were transiently transfected with an estrogen-responsive reporter gene, ERE-tk109-Luc. […] Luciferase activity was normalized to activity of E2 alone and IC50's were calculated using the least squares fit method.

Data set [2] has as its system MCF-7 breast cancer cells. In words: Inhibition of E2-stimulated proliferation of MCF-7 cells (Cyquant). The class given is cell-based. Particulars: Homo sapiens, MCF7. The procedure: Proliferation of MCF-7 breast cancer cells was measured using Cyquant, a fluorescent DNA-binding dye (Thermo Fisher Scientific). MCF-7 cells were treated with antiestrogens in triplicate in hormone-depleted medium for 5-7 days in the presence of 100 pM E2. Fluorescent activity was normalized to the activity of E2 alone and IC50's were calculated using the least squares fit method.

The test system of data set [3] is AP activity in ECC-1 cells. In words: Alkaline phosphatase (AP) assay in ECC-1 uterine cells, antagonist mode (co-treated with 500 pM E2). The class given is cell-based, human. Particulars: 100 nM antiestrogen. The method, then: Method for performing the alkaline phosphatase (AP) assay. ECC-1 cells were trypsinized and resuspended in hormone-depleted media and plated at a density of 15 k cells per well into a 96-well plate for at least 4 hours. Cells were treated with antiestrogens for 3 days and plates were subsequently frozen at −80° C. […] AP activity was normalized to the activity of E2 alone.

The nature of data set [4]: Free fraction of drug in human plasma, rapid equilibrium dialysis. The class given is in vitro ADME. The source says: (§1) Method for detecting free fraction of drug in plasma: Compounds were screened for binding to human and mouse plasma (Bioreclamation, IVT) using a rapid equilibrium dialysis device (Thermo Fisher Scientific) and compounds subsequently detected by LC-MS/MS. Percent free drug equals the concentration of compound in buffer chamber divided by that in the […] chamber×100.
On the technique in general: In equilibrium dialysis only unbound substance equilibrates across the membrane.

The nature of data set [5]: Free fraction of drug in mouse plasma, rapid equilibrium dialysis. The class given is in vitro ADME.
Text: as §1

The target of data set [6] is T1, ERα (Homo sapiens (Human), UniProt P03372). In words: ERα levels in MCF-7 cells, in-cell western (Colorimetric In-Cell ELISA). The format is cell-based. Particulars: for Relative change in ERα levels in breast cells % Veh: MCF-7, 24 hours. The method, then: IC50's were calculated using the least squares fit method. Error bars represent S.E.M from triplicate wells.
Background: In an ELISA, binding on a coated surface is turned into a signal by an enzyme label.

The test system of data set [7] is MCF-7 (HER2/neu) tumors. As to the kind of experiment: Xenograft study, Clone 18 (MCF7/Her2/neu) tumors in athymic ovariectomized nu/nu mice. The format is in vivo. Particulars: oral gavage, 10 mg/kg, FIGS. 5A-B. The method, then:
Xenograft studies were conducted by the Preclinical Therapeutics Core at the University of California, San Francisco in accordance with the Institutional Animal Care and Use Committee (IACUC) guidelines. Clone 18 cells (MCF7/Her2/neu) cells were grown in culture and implanted into athymic ovariectomized nu/nu mice. To stimulate tumor growth 0.36 mg estradiol 90 day release pellets (Innovative Research, Saratoga, Fla.) were implanted along with cells. When tumors reached 150-250 cubic millimeters the pellets were exchanged for 0.18 mg estradiol 90 day release pellets and divided into groups of six mice per treatment group. One of those groups received vehicle only (0.5% CMC+8% DMSO), and Compound B and Compound C each had 2 groups treated with either 10 or 100 mg/kg compound. Compounds were administered by oral gavage twice daily, except once daily on weekends/holidays for the first 21 days, and once daily after day 21. Tumors and bodyweight were measured twice weekly.

The nature of data set [8]: Pharmacokinetics in BALB/c female mice, oral gavage. The class given is in vivo. Particulars: for oral drug exposure, free fraction taken into account, vs equal dose of Compounds 107 and 102: mice, oral gavage, FIGS. 1A-1B. The method, then:
Pharmacokinetics were studied in BALB/c female mice. For each arm, three BALB/c female mice were given 5 mg/kg of compound in 0.5% CMC formulation by oral gavage. Concentration of compounds in mouse plasma and their metabolites were analyzed at each time point using LC-MS/MS. The concentrations were adjusted for the free fraction of drug in mouse plasma (method below). Area under the curve was calculated using the trapezoidal rule for 0-24 hours.

The subject of data set [9] is AP activity in ECC-1 cells. In words: Alkaline phosphatase (AP) assay in ECC-1 uterine cells, agonist mode. The class given is cell-based, human. Conditions: mean of n. The procedure:
Method for performing the alkaline phosphatase (AP) assay. ECC-1 cells were trypsinized and resuspended in hormone-depleted media and plated at a density of 15 k cells per well into a 96-well plate for at least 4 hours. Cells were treated with antiestrogens for 3 days and plates were subsequently frozen at −80° C. Thawed plates were incubated with a chromogenic substrate of AP, p-nitrophenyl phosphate (Thermo Fisher Scientific), for 40 minutes at 40° C. and absorbances were read at 405 nm. AP activity was normalized to the activity of E2 alone. […] A representative result for induction of AP activity in uterine cells (% E2) is shown below in tabular form: […]

Data set [10] addresses T1, ERα. As to the kind of experiment: ER degradation in MCF-7 cells, immunoblot. The class given is cell-based. Conditions: 100 nM, 24 hours, serum-free medium. The procedure: MCF-7 cells were treated with 100 nM anti-estrogen for 24 hours in serum-free medium and protein extracts immunoblotted with D12 antibody to ERα and β-actin (Santa Cruz Biotechnology). The numbers below the blots represent the optical density of ERα bands of each treatment relative to percent vehicle after normalization to β-actin.

Setting [11] is: MCF-7, 100 pM E2, 22 hours, read-out: inhibition of E2-induced transcription in breast cells IC50.
The mark [12] stands for this setting: Table 1, read-out: ERE-Luc IC50.
Setting [13] is: MCF-7, 100 pM E2, 5-7 days, read-out: inhibition of E2-stimulated proliferation in breast cells IC50.
Setting [14] is: Table 1, read-out: MCF-7 Proliferation IC50.
Where [15] appears, read: mean of n, read-out: Inhibition of E2-stimulated transcription in breast cells pIC50 (converted).
Setting [16] is: mean of n, read-out: Inhibition of E2-stimulated proliferation in breast cells pIC50 (converted).
Where [17] appears, read: BALB/c mice, 5 mg/kg oral gavage.

Each structure is given as a SMILES string. Entries after “also recorded” stand apart in the source; their conditions may differ. Like-named read-outs stand apart in the source and are kept apart here.

T1 sequence (P03372 whole entry): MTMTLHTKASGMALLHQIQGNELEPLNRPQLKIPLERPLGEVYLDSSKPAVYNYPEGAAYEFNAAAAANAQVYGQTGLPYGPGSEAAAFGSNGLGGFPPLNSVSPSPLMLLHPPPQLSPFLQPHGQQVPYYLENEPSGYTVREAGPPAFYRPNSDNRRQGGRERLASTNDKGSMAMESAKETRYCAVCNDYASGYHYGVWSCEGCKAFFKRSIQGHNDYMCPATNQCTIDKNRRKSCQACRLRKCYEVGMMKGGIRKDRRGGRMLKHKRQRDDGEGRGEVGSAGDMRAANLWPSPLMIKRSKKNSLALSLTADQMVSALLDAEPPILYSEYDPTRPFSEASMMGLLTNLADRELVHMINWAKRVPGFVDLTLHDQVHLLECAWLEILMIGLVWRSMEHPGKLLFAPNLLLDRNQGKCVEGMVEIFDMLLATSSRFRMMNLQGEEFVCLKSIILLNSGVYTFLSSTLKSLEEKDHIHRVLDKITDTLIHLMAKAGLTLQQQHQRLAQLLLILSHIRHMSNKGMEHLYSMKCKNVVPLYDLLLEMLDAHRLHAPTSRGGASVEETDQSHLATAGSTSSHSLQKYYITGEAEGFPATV

With `CCCN1CC(Oc2ccc([C@@H]3c4[nH]c5ccccc5c4C[C@@H](C)N3CC(C)(C)F)cc2F)C1` [Compound A, (1R,3R)-2-(2-fluoro-2-methylpropyl)-1-(3-fluoro-4-((1-propylazetidin-3-yl)oxy)phenyl)-3-methyl-2,3,4,9-tetrahydro-1H-pyrido[3,4-b]indole], the IC50 in data set [1] (setting [11]) is 2.96 nM; in data set [1] (setting [12]), 2.96 nM; in data set [2] (setting [13]), 7.58 nM; in data set [2] (setting [14]) it was 7.58 nM.
On to `C[C@@H]1Cc2c([nH]c3ccccc23)[C@@H](c2c(F)cc(OCCN3CC(CF)C3)cc2F)N1CC(C)(C)F` [Compound D, (1R,3R)-1-(2,6-difluoro-4-(2-(3-(fluoromethyl)azetidin-1-yl)ethoxy)phenyl)-2-(2-fluoro-2-methylpropyl)-3-methyl-2,3,4,9-tetrahydro-1H-pyrido[3,4-b]indole], for which the IC50 in data set [1] (setting [11]) is 10 nM; in data set [1] (setting [12]), 10 nM; in data set [1] (setting [15]), 9.55 nM; in data set [2] (setting [13]), 8.4 nM; in data set [2] (setting [14]) it was 8.4 nM; in data set [2] (setting [16]), 10.5 nM. Besides, the “residual AP activity in uterine cells (% of E2 alone)” value in data set [3] is given as 4.07 % E2. The fraction unbound turned out to be 0.00044 in data set [4] and 0.00036 in data set [5].
For `Oc1ccc2c(c1)CC[C@H](c1ccccc1)[C@@H]2c1ccc(OCCN2CCCC2)cc1` [Lasofoxifene, reference compound], the IC50 in data set [1] (setting [11]) was found to be 4.6 nM; in data set [2] (setting [13]), 11 nM.
With `C[C@@H]1Cc2c([nH]c3ccccc23)[C@@H](c2ccc(OCCN3CC(CF)C3)cc2)N1CC(C)(C)F` [Compound C, (1R,3R)-2-(2-fluoro-2-methylpropyl)-1-(4-(2-(3-(fluoromethyl)azetidin-1-yl)ethoxy)phenyl)-3-methyl-2,3,4,9-tetrahydro-1H-pyrido[3,4-b]indole], the IC50 is 10.7 nM in [1] (setting [11]); 10.7 nM in data set [1] (setting [12]); 8.13 nM in data set [1] (setting [15]); 1.3 nM in data set [2] (setting [13]); 14.5 nM in data set [2] (setting [14]); 11.7 nM in data set [2] (setting [16]). Also, in data set [6], the “Relative change in ERα levels in breast cells % Veh” value is recorded as 42 % Veh. Moreover, the fraction unbound stood at 0.00151 in [4] and 0.00092 in data set [5]. In data set [7], the “tumor shrinkage in xenografted mice” value is on record as “outstandingly potent in shrinking human breast cancer xenografts”. In addition, the “oral drug exposure, free fraction taken into account, vs equal dose of Compounds 107 and 102” value in data set [8] was “substantially higher”.
Turning to `C[C@@H]1Cc2c([nH]c3ccccc23)[C@@H](c2c(F)cc(/C=C/C(=O)O)cc2F)N1CC(C)(C)F` [AZD9496, (E)-3-(3,5-Difluoro-4-((1R,3R)-2-(2-fluoro-2-methylpropyl)-3-methyl-2,3,4,9-tetrahydro-1H-pyrido[3,4-b]indol-1-yl)phenyl)acrylic Acid, reference compound], the IC50 in data set [1] (setting [11]) was 0.2 nM; in data set [1] (setting [12]) it was 0.2 nM; in [1] (setting [15]), 0.631 nM. Moreover, the fraction unbound was 0.00308 in data set [4] and 0.00214 in [5].
Consider `CCCN1CC(Oc2cc(F)c([C@@H]3c4[nH]c5ccccc5c4C[C@@H](C)N3CC(C)(C)F)c(F)c2)C1` [Goodacre Compound 107, (1R,3R)-1-(2,6-difluoro-4-((1-propylazetidin-3-yl)oxy)phenyl)-2-(2-fluoro-2-methylpropyl)-3-methyl-2,3,4,9-tetrahydro-1H-pyrido[3,4-b]indole, reference compound], for which the IC50 in [1] (setting [15]) is 4.37 nM; in data set [2] (setting [16]) it was 7.59 nM. In addition, in [9], the “Induction of Alkaline Phosphatase (AP) % E2” value was 0.00 % E2. In addition, the fraction unbound came out at 0.00013 in data set [4] and 0.00012 in [5].
In the case of `C[C@]12CC[C@@H]3c4ccc(O)cc4C[C@@H](CCCCCCCCC[S+]([O-])CCCC(F)(F)C(F)(F)F)[C@H]3[C@@H]1CC[C@@H]2O` (stereo partly drawn) [Fulvestrant, reference compound], the IC50 in data set [1] (setting [11]) was 1.4 nM; in data set [1] (setting [15]), 1.91 nM; in data set [2] (setting [13]), 2.1 nM; in [2] (setting [16]), 2.63 nM. The same molecule yielded a fraction unbound in data set [4] of 1e-05.
`CCCN1CC(Oc2ccc([C@@H]3c4[nH]c5ccccc5c4C[C@@H](C)N3CC(C)(C)F)cc2)C1` [Compound B, (1R,3R)-2-(2-fluoro-2-methylpropyl)-3-methyl-1-(4-((1-propylazetidin-3-yl)oxy)phenyl)-2,3,4,9-tetrahydro-1H-pyrido[3,4-b]indole]: the IC50 was 4.35 nM in data set [1] (setting [11]); 4.35 nM in [1] (setting [12]); 4.37 nM in data set [1] (setting [15]); 4.53 nM in data set [2] (setting [13]); 4.53 nM in data set [2] (setting [14]); 7.76 nM in [2] (setting [16]). Besides, the “ER degradation in MCF-7 cells (in-cell western, FIG. 2)” value in data set [6] (24 hours) was “degrades the estrogen receptor”. Also, in data set [6], the “Relative change in ERα levels in breast cells % Veh” value worked out at 45 % Veh. Besides, the “ER degradation in MCF-7 cells (immunoblot, FIG. 7)” value in data set [10] is listed as “degrades the estrogen receptor”. For the same molecule, the figures for the fraction unbound in [4] and in data set [5] were 0.00036 and 0.00027, respectively. Besides, the “tumor shrinkage in xenografted mice” value in [7] is “outstandingly potent in shrinking human breast cancer xenografts; also recorded: shrinks MCF-7 (HER2/neu) tumors”. Besides, in data set [8] (setting [17]), the “24 hour drug exposure compared to other compounds” value is listed as “better”. In addition, in data set [8] (setting [17]), the half-life entry is listed as “high”. In addition, in data set [8] (setting [17]), the oral bioavailability entry is reported as “high”. In addition, in data set [8], the “oral drug exposure, free fraction taken into account, vs equal dose of Compounds 107 and 102” value is listed as “substantially higher”.
